Assays:
[1] = system: HMLER and HCC38 CD44^Lo cells; test: Flow cytometry of chemotherapy-induced CD44^Lo to CD44^Hi plasticity; type: cell-based, human; settings: one dose of chemotherapy for 72 hours
Excerpt: Cells were stained and fixed as with DHT treatment.
Using purified populations of CD44^Lo cells (with no CD44^Hi fraction) the effects of chemotherapy on cellular plasticity was investigated using flow cytometry.

ELX12-58 PDX model = ELX12-58 PDX model with PEG-Doxorubicin or Cisplatin and Seviteronel (FIG. 15); type: in vivo, NSG female mice; settings: ELX-12-58 PDX
Excerpt: Freshly cut tumour chunks derived from a previously expanded tumour (ELX12-58 PDX model) were transferred into the mammary fat pad of NSG female mice. 15 animals were enrolled per treatment arm. Tumour size was monitored by caliper measurement as previously described. At the time tumour size reached 50-150 mm^3 animals were randomized into treatment arms: Vehicle (Veh), PEG-Doxorubicin (PEG-Dox) and PEG-Dox+Sev. Drug preparation and treatment administration was followed as previously described for the first round of treatment. PEG-Dox (Liposomal Doxorubicin Sun. R:202827) was administrated by weekly injections to a final concentration of 4 mg/kg. At treatment end-point animals were harvested and primary tumour, lymph node metastasis (if present), lung and liver were collected to generate FFPEs for histopathology analysis. […] Treatment was extended for 2 additional weeks, following the 3rd dose of chemotherapy, administrating a total of 5 EPG-Dox injections for these animals. Animals were followed up for 2.5 months, culling mice before if reached ethical end-point. Primary tumour and organs to determine metastatic burden were collected.

N.N.[Cl][Pt][Cl] [Cisplatin] was tested. Which “induction of CD44^Lo-to-CD44^Hi transition by chemotherapy” value [1] did it give?
Its value is “induce CD44^Lo cells to transition to the CD44^Hi state”.

What about the tumour burden (ELX12-58 PDX model) of the same compound?
The tumour burden was “did not reduce ELX-12-58 tumour burden”.
